From patent publication US20170265474A1, “BICYCLIC COMPOUNDS AS PEST CONTROL AGENTS” (BAYER CROPSCIENCE AKTIENGESELLSCHAFT, priority 2014, published 2017)
Like-named read-outs stand apart in the source and are kept apart here.

Experiments:
Myzus persicae [1] = assay: Myzus persicae spray test (bell pepper plants); assay type: in vivo, green peach aphid (Myzus persicae); settings: after 6 days
Procedure: Myzus persicae—Spray Test • Solvent: 7 parts by weight of dimethylformamide • Emulsifier: alkylaryl polyglycol ether To produce a suitable preparation of active compound, 1 part by weight of active compound is dissolved using the specified parts by weight of solvent and made up with water containing an emulsifier concentration of 1000 ppm until the desired concentration is attained. To produce further test concentrations, the formulation is diluted with emulsifier-containing water. If the addition of ammonium salts or/and penetrants is required, these are each added in a concentration of 1000 ppm to the formulation solution. Bell pepper plants (Capsicum annuum) severely infested with the green peach aphid (Myzus persicae) are treated by spraying with the active compound formulation in the desired concentration. After 6 days, the kill in % is determined. 100% means that all of the aphids have been killed; 0% means that none of the aphids have been killed.

[2] = log P by HPLC on reversed-phase (C18) columns, OECD Guideline 117; assay type: physicochemical; settings: reversed-phase (C18) HPLC column
Procedure: The log P values were determined in accordance with OECD Guideline 117 (EC Directive 92/69/EEC) by HPLC (high-performance liquid chromatography) using reversed-phase (RP) columns (C18), by the following methods: [a] The LC-MS determination in the acidic range is carried out at pH 2.7 with 0.1% aqueous formic acid and acetonitrile (contains 0.1% formic acid) as eluents; linear gradient from 10% acetonitrile to 95% acetonitrile. [b] LC-MS determination in the neutral range is effected at pH 7.8 with 0.001 molar aqueous ammonium hydrogencarbonate solution and acetonitrile as eluents; linear gradient from 10% acetonitrile to 95% acetonitrile. Calibration is carried out using unbranched alkan-2-ones (having 3 to 16 carbon atoms) with known log P values (log P values determined on the basis of the retention times by linear interpolation between two successive alkanones).

Myzus persicae [3] = assay: Myzus persicae spray test (Chinese cabbage leaf discs); assay type: in vivo, green peach aphid (Myzus persicae); settings: foliar, 144 h, application rate 500 g/ha, after 6 days, 100% = all aphids killed, read-out: efficacy
Procedure: Myzus persicae—Spray Test • Solvent: 78 parts by weight of acetone • 1.5 parts by weight of dimethylformamide • Emulsifier: alkylaryl polyglycol ether To produce a suitable preparation of active compound, 1 part by weight of active compound is dissolved using the specified parts by weight of solvent and made up with water containing an emulsifier concentration of 1000 ppm until the desired concentration is attained. To produce further test concentrations, the formulation is diluted with emulsifier-containing water. Discs of Chinese cabbage leaves (Brassica pekinensis) infested by all stages of the green peach aphid (Myzus persicae) are sprayed with an active compound formulation of the desired concentration. After 6 days, the efficacy in % is determined. 100% means that all the aphids have been killed; 0% means that no aphids have been killed.

Aphis gossypii = Aphis gossypii spray test (cotton plants); assay type: in vivo, cotton aphid (Aphis gossypii); settings: application rate 4 ppm, after 6 days
Procedure: Aphis gossypii—Spray Test • Solvent: 7 parts by weight of dimethylformamide • Emulsifier: alkylaryl polyglycol ether To produce a suitable preparation of active compound, 1 part by weight of active compound is dissolved using the specified parts by weight of solvent and made up with water containing an emulsifier concentration of 1000 ppm until the desired concentration is attained. To produce further test concentrations, the formulation is diluted with emulsifier-containing water. If the addition of ammonium salts or/and penetrants is required, these are each added in a concentration of 1000 ppm to the formulation solution. Cotton plants (Gossypium hirsutum) which are heavily infested by the cotton aphid (Aphis gossypii) are sprayed with an active compound formulation of the desired concentration. After 6 days, the kill in % is determined. 100% means that all the aphids have been killed; 0% means that no aphids have been killed.

Tetranychus urticae = Tetranychus urticae spray test, OP-resistant (bean leaf discs); assay type: in vivo, greenhouse red spider mite (Tetranychus urticae); settings: application rate 500 g/ha, after 6 days, 100% = all spider mites killed
Procedure: Tetranychus urticae—Spray Test, OP-Resistant • Solvent: 78.0 parts by weight of acetone • 1.5 parts by weight of dimethylformamide • Emulsifier: alkylaryl polyglycol ether
To produce a suitable preparation of active compound, 1 part by weight of active compound is dissolved using the specified parts by weight of solvent and made up with water containing an emulsifier concentration of 1000 ppm until the desired concentration is attained. To produce further test concentrations, the formulation is diluted with emulsifier-containing water.
Discs of bean leaves (Phaseolus vulgaris) infested with all stages of the greenhouse red spider mite (Tetranychus urticae) are sprayed with an active compound formulation of the desired concentration.
After 6 days, the efficacy in % is determined. 100% means that all the spider mites have been killed; 0% means that no spider mites have been killed.

[4] = acidic range, pH 2.7, 0.1% aqueous formic acid / acetonitrile, read-out: logP[a]
[5] = neutral range, pH 7.8, 0.001 molar aqueous ammonium hydrogencarbonate / acetonitrile, read-out: logP[b]

Compound | chromatographic logP [2, 4] | chromatographic logP [2, 5] | pest or weed control at 500 g/ha (Myzus persicae [3]) [%] | also measured
Cc1cc(F)c(-c2ccc3nc(-c4cccnc4)sc3n2)cc1SCC(F)(F)F [Example 1, 5-[2-Fluoro-4-methyl-5-(2,2,2-trifluoroethylsulfanyl)phenyl]-2-(3-pyridyl)thiazol [5,4-b]pyridine] | 4.81 | 4.75 | 100 | efficacy (kill) (Myzus persicae [1]; application rate 4 ppm): 100%
Cc1ccc(-c2ccc3nc(-c4cccnc4)sc3n2)cc1SCC(F)(F)F [Example 2, 5-[4-Methyl-3-(2,2,2-trifluoroethylsulfanyl)phenyl]-2-(3-pyridyl)thiazolo[5,4-b]pyridine] | 4.67 | 4.64 | 90 | efficacy (kill) (Myzus persicae [1]; application rate 4 ppm): 100%
Cc1cc(F)c(-c2ccc3nc(-c4cccnc4)sc3n2)cc1[S+]([O-])CC(F)(F)F (stereo not shown) [Example 3, 5-[2-Fluoro-4-methyl-5-(2,2,2-trifluoroethylsulfinyl)phenyl]-2-(3-pyridyl)thiazolo[5,4-b]pyridine] | 3.02 | 3.09 | – | efficacy (kill) (Myzus persicae [1]; application rate 4 ppm): 97%
Cc1ccc(-c2ccc3nc(-c4cccnc4)sc3n2)cc1[S+]([O-])CC(F)(F)F (stereo not shown) [Example 4, 5-[4-Methyl-3-(2,2,2-trifluoroethylsulfinyl)phenyl]-2-(3-pyridyl)thiazolo[5,4-b]pyridine] | 2.99 | 2.98 | 90 | efficacy (kill) (Myzus persicae [1]; application rate 4 ppm): 95%
c1cncc(-c2nc3ccc(N4CCCC4)nc3s2)c1 [Example 6, 2-(3-Pyridyl)-5-pyrrolidin-1-ylthiazolo[5,4-b]pyridine] | 2.53 | 2.97 | – | efficacy (kill) (Myzus persicae [1]; application rate 100 ppm): 95%
c1cnc(-c2ccc3nc(-c4cccnc4)sc3n2)nc1 [Example 7, 2-(3-Pyridyl)-5-pyrimidin-2-ylthiazolo[5,4-b]pyridine] | 1.43 | 1.5 | – | efficacy (kill) (Aphis gossypii): 80%
c1ccc(-c2ccc3nc(-c4cccnc4)sc3n2)nc1 [Example 8, 5-(2-Pyridyl)-2-(3-pyridyl)thiazolo[5,4-b]pyridine] | 2.12 | 2.68 | – | efficacy (kill) (Myzus persicae [1]; application rate 4 ppm): 80%
Cc1ccc(Nc2ccc3nc(-c4cccnc4)sc3n2)cc1SCC(F)(F)F [Example 9, N-[4-Methyl-3-(2,2,2-trifluoroethylsulfanyl)phenyl]-2-(3-pyridyl)thiazolo[5,4-b]pyridine-5-amine] | 3.99 | 4.06 | – | efficacy (Tetranychus urticae): 90%
FC(F)(F)c1ccc2nc(-c3cccnc3)sc2n1 [Example 10, 2-(3-Pyridyl)-5-(trifluoromethyl)thiazolo[5,4-b]pyridine] | 2.65 | 2.69 | – | efficacy (Tetranychus urticae): 90%
c1cncc(-c2nc3ccc(N4CCOCC4)nc3s2)c1 [Example 11, 4-[2-(3-Pyridyl)thiazolo[5,4-b]pyridin-5-yl]morpholine] | 2.1 | 1.95 | 90 | –
Cc1ccc(N(C)c2ccc3nc(-c4cccnc4)sc3n2)cc1SCC(F)(F)F [Example 12, N-methyl-N-[4-methyl-3-(2,2,2-trifluoroethylsulfanyl)phenyl]-2-(3-pyridyl)thiazolo[5,4-b]pyridine-5-amine] | 4.81 | 4.78 | 90 | –
FC(F)(F)c1cnn(-c2ccc3nc(-c4cccnc4)sc3n2)c1 [Example 13, 2-(3-Pyridyl)-5-[4-(trifluoromethyl)pyrazol-1-yl]thiazolo[5,4-b]pyridine] | 3.82 | 3.72 | – | –
CNc1ccc2nc(-c3cccnc3)sc2n1 [Example 15] | 1.34 | – | – | –
CSCCC(=O)N(C)c1ccc2nc(-c3cccnc3)sc2n1 [Example 22] | 1.98 | – | 90 | –
CN(C(=O)c1cccc([S+]([O-])C(F)(F)F)c1)c1ccc2nc(-c3cccnc3)sc2n1 (stereo not shown) [Example 29] | 2.23 | – | 100 | –
CN(C(=O)CCS(C)(=O)=O)c1ccc2nc(-c3cccnc3)sc2n1 [Example 30, N-Methyl-3-(methylsulfonyl)-N-[2-(pyridin-3-yl)[1,3]thiazolo[5,4-b]pyridin-5-yl]propanamide] | 1.25 | – | 90 | –
CN(C(=O)c1cccc(S(=O)(=O)C(F)(F)F)c1)c1ccc2nc(-c3cccnc3)sc2n1 [Example 31] | 1.54 | – | 90 | –
CNC(=O)c1ccc2nc(-c3cccnc3)sc2n1 [Example 32] | 1.35 | – | – | –
CCN(C)C(=O)c1ccc2nc(-c3cccnc3)sc2n1 [Example 33] | 1.53 | – | – | –
O=C(Nc1cccc(S(=O)(=O)C(F)(F)F)c1)c1ccc2nc(-c3cccnc3)sc2n1 [Example 34] | 2.1 | – | – | –
CSCCNC(=O)c1ccc2nc(-c3cccnc3)sc2n1 [Example 35] | 2.03 | – | 90 | –
O=C(Nc1cccc([S+]([O-])C(F)(F)F)c1)c1ccc2nc(-c3cccnc3)sc2n1 (stereo not shown) [Example 36] | 3.09 | – | – | –
O=C(Nc1ccc2nc(-c3cccnc3)sc2n1)c1cccc([S+]([O-])C(F)(F)F)c1 (stereo not shown) [Example 37] | 2.61 | – | – | –
CS(=O)(=O)CCC(=O)Nc1ccc2nc(-c3cccnc3)sc2n1 [Example 38] | 1.18 | – | – | –
FC(F)(F)c1ccn(-c2ccc3nc(-c4cccnc4)sc3n2)n1 [Example 39] | 3.79 | 3.83 | – | –
Clc1ccc2nc(-c3cccnc3)sc2n1 [Example 40] | 2.26 | 2.33 | – | –
Cc1ccc(Nc2ccc3nc(-c4cccnc4)sc3n2)cc1[S+]([O-])CC(F)(F)F (stereo not shown) [Example 42] | 2.75 | 2.77 | – | –
